Measurements as given in patent US6815461B1, “Method of inhibiting retroviral integrase” (The University of North Carolina at Chapel Hill, priority 1994, dated 2004).
Where two headings read alike, the source gives them in different places.

What was measured:
HIV-1 [1] = test: Magic cell HIV-1 inhibition assay; assay type: cell-based, HIV-1 strain HXB2; settings: Human immunodeficiency virus 1; Magic cells, infectious units with or without drug, 4 h pretreatment, read two days later
Experimental: Cell lines used were CEM cells, a human T-cell lymphona cell line, A. Kaplan et al, J. Virol. 67, 4050-5 (1993), and Magic cells, J. Kimpton et al, J. Virol. 66, 2232-2239 (1992). The CEM cells were grown in RPM1-1640 medium supplemented with 5% FCS. The Magic Cells, a HELA derivative, were grown in DMEM/H supplemented with 5% FCS, G418 ([…]) and Hygromycin ([…]). The HIV isolate was strain HXB2, originally from Lee Ratner in the laboratory of Robert Gallo at the National Institutes of Health.
The magic cell assay described by Kimpton et al., supra, was used as described. This assay identifies individual cells infected with HIV-1 by the expression of tat, which transactivates an endogenous copy of the HIV-1 LTR linked to the lac2 reporter gene after integration, inducing β-galactosidase expression when x-gal is added to the cell medium. Any cell with integrated HIV-1 will turn blue. Thus, this assay provides a convenient way to determine the effect of HIV inhibitors at any early step up through the expression of tat, including the inhibition of integration.
The magic cells are plated in twelve-well plates one day prior to infection. The standard assay involves infection with approximately 200 infectious units of HIV-1. This gives an approximately 20 to 1 ratio of signal to background and sufficient numbers of infectious events to quantitate dim effects. The cells are pretreated with drug for 4 hours prior to virus infection, and virus adsorption takes place for 1 hour. The cells are washed with plain medium, and then medium with inhibitor is placed back on the cells. Two days later the cells are fixed after integration with x-gal, the indicator reagent for β-galactosidase production. The number of β-galactosidase expressing cells are quantitated by light microscopy.
The results of comparisons of infectious units with or without various concentrations of the bis-benzimididazoles drugs in the magic cell assay are expressed as IC50 values and are compiled in Table 2 above. Note that the best anti-HIV compounds (B-D) were also the best integrase inhibitors, except for compound A, which could not be accurately measured due to its substrate aggregating properties.

HIV-1 integrase = target: T1, HIV-1 integrase (Human immunodeficiency virus type 1 group M subtype B, UniProt P04585); test: Integrase inhibition assay (cleavage and strand transfer of 32P-labelled HIV-1 U5/U3 oligonucleotide substrate); assay type: biochemical
T1 construct: using the integrase coding domain from the HXB2 clone of HIV-1 DNA; made in house; host or cells: E. coli
Experimental: Integrase was overproduced in E. coli from an inducible plasmid containing the integrase sequence under control of a lacI-regulated T7 polymerase using the integrase coding domain from the HXB2 clone of HIV-1 DNA (L. Ratner et al, AIDS Res. Hum. Retroviruses 3, 57-69 (1987)), pT7fll-IN. A one liter culture at an O.D. of 0.6 was induced by the addition of IPTG to 0.5 mM. After three hours, the cells were harvested by centrifugation and the pellets were stored at −70° C.
The integrase protein was purified by a modification of the method of Sherman and Fyfe (P. Sherman et al, Proc. Natl. Acad. Sci. USA 87, 5119-23 (1990)). The cells were lysed by thawing in a buffer (50 mM Tris-HCl pH 7.5, 5 mM dithiothreitol, 1 mM EDTA, 1 mg/ml lysozyme) on ice at 6 ml/g bacterial pellet for 30 minutes, and then incubating at 37° C. for 5 minutes. The lysate was centrifuged at 12,000×g for one hour. The pellets were resuspended in 50 mM Tris-HCl, pH 7.5, 1 mM dithiothreitol, 1 mM EDTA, 1 M NaCl (4 ml/g original bacteria). The homogenate was stirred for 30 minutes at 4° C. and recentrifuged for 30 minutes at 12,000×g.
The supernatant was made 0.8 M in ammonium sulfate by the slow addition of powder with stirring over a 30 minute period. The extract was then centrifuged to remove any precipitate and applied to a phenyl sepharose column. After a 50 ml wash with high salt buffer (50 mM Tris-HCl, 1 mM EDTA, 5 mM DTT, 2 M NaCl), the protein was eluted with a gradient from high salt to O salt buffer containing 10% (weight/vol) glycerol and further purified through a G75 Sephadex column to remove background nuclease. A one liter culture generates enough integrase activity to perform over a thousand drug inhibition assays.
Cleavage of specific sites is assessed as described in Sherman et al., supra, except that the assay buffer was the same as that reported by Chow et al, Science 255, 723-6 (1992). Single 20 mer oligonucleotides corresponding to either the U5 or U3 ends of HIV-1 are end-labeled with ^32P, annealed with its complement, purified, and used under the same conditions as described above for the endonuclease assay. Reaction products are denatured with formamide, electrophoresed through 20% denaturing polyacrylamide gels and visualized by autoradiography. Both cleavage and ligation activity can be assessed from one gel. To assess the ligation activity alone, “precleaved” substrate that had the −2 cleavage artificially produced by using a radiolabelled 18 mer oligonucleotide was also used for some experiments.
Integrase overproduced in E. coli was purified as described above in accordance with Sherman et al, supra, and used in drug inhibition assays. […] Dilutions of the inhibitor compounds described in Example 1 above were mixed with substrate before the addition of enzyme. The Assay was the same as described in Example 2 and used the substrate described in Example 2. Each assay was performed in duplicate. Radioactivity in bands on dried gels were quantitated with a Phosphor imager to assess drug effects on both the cleavage, nuclease, and ligation products. The IC50 values for integrase inhibition were calculated for both the cleaving and joining parts of the integrase reaction after determining the % inhibition of the control reaction for a series of drug concentrations. Compounds A, B, C, and D had similar effects on integrase activity. Compound A, however, caused aggregation of the substrate starting at relatively low concentrations (10 μM), complicating its assessment.

Magic cells [2] = test: Toxicity assay (XTT) on the cell lines used to measure virus infectivity; assay type: cell-based; settings: human, 2 days
Experimental: (§1) Three different toxicity tests were performed on the cell lines used to measure virus infectivity.
(§2) The initial test for toxicity utilized the XTT Assay as described by Weislow et al, J. Natl. Cancer Inst. 81, 577-586 (1989). This is the standard assay used originally to measure cell toxicity by potential reverse transcriptase inhibitors. Briefly, cells were grown to cells/ml and drug dilutions were added to the medium. After two days incubation, XTT reagent is added and incubation is continued for 4 h at 37° C. Following incubation, the plates are read at 450 minus 650 nm (the 650 value is the backround value which is automatically subtracted) with controls of media+XTT reagent without cells, and cells+media without reagent. Also a control of cells+media+XTT reagent was run for each plate. Medium without phenol red was employed to minimize background color as the XTT reagent goes from colorless (unreduced) to orange (reduced). The XTT reagent was freshly prepared on the day of assay as follows: 1 mg/ml of XTT in […] phenazine methosulfate. The phenazine methosulfate solution was prepared ahead of time and stored at 4° C. in a dark bottle. The XTT reagent is added to the microtiter wells at 24 ul per 100 ul of medium. The O.D. was measured on a Vmax plate reader from Molecular Devices Co. with data reduction. Results are expressed as percent of untreated controls. The least toxic compounds were Compounds A, B, and F with toxicities values at 500 μM or greater.
(§3) The third test for cell toxicity assessed growth rate in the presence of the test compound versus a control culture. Magic cells were grown over a period of 15 days with or without various dilutions of test compound. Aliquots were removed every other day and the cells were counted in a hemocytometer. The results are set forth in FIG. 2 herein (see also Table 2 below).

[3] = as above; assay type: cell-based; settings: human
Experimental: as §1, §2, §3

Magic cells [4] = test: Growth rate in the presence of test compound; assay type: cell-based
Experimental: as §3
The most sensitive test employed measurements of growth rates for the cells in the presence of the test compound. Although the anti-viral assay used was one that assessed early times of the viral life cycle, this test was carried out for 15 days, with counting of cell numbers in cultures performed every other day during this time.

HIV-1 [5] = test: Standard reinfection assay of antiviral activity; assay type: cell-based; settings: Human immunodeficiency virus 1
Experimental: In addition, the assessment of antiviral activity as measured by the standard reinfection assay was performed for compound B. The IC50 for compound B in this assay was 10-30 μM. This confirms that the Magic cell assay is suitable for screening potential integrase inhibitors with good antiviral activity.

Magic cells [6] = test: Plating efficiency test; assay type: cell-based; settings: at the concentrations at which anti-viral effects were observed
Experimental: Next, a plating efficiency test measured the ability of the cell to grow after incubation with drug for a number of days. Magic cells were grown from an initial cell concentration of 0.8×104 with or without various concentrations of test compound for 6 days. Plating ability of the cells was assessed by plating dilutions of each culture on plastic. Colony forming units were determined after growth for two to four days by counting colonies after staining the plates. Each sample was plated in duplicate and the colony number averaged.
Another test of cellular effects by the compounds was a measure of plating efficiency of the cells after incubation with various concentrations of test agents. This will assess the actual killing of the cells by the drugs. The IC50 values are expected to be much higher in this test.

[7] = Integrase Cleavage IC50, % cleavage of the substrate compared to control
[8] = Integrase Strand Transfer IC50, joining part of the integrase reaction

| Compound | IC50 (HIV-1 [1]) | IC50 (HIV-1 integrase; [7]) | IC50 (HIV-1 integrase; [8]) | Concentration at which aggregation of the substrate starts (HIV-1 integrase; integrase assay substrate) | XTT assay toxicity value (Magic cells [2]) | IC50 at 2 days [3] | Effect on growth rate of the cell line (Magic cells [4]; concentration that inhibited 50% of the viral integration events, up to two weeks) | Effect on growth rate of the cells (Magic cells [4]; higher concentrations, 15 days test) | IC50 (HIV-1 [5]) | Effect on Magic cell plating efficiency (Magic cells [6]) | IC50 at 2 days ([3]; Magic cells, read-out: Magic Cells Toxicity IC50) |
| --- | --- | --- | --- | --- | --- | --- | --- | --- | --- | --- | --- |
| N=C(N)c1ccc2nc(C=Cc3nc4ccc(C(=N)N)cc4[nH]3)[nH]c2c1 [Compound A, 1,2-bis[5-amidino-2-benzimidazolyl]ethene] | 48 µM | 11 µM | 11.5 µM | 10 µM | ≥ 500 µM | > 500 µM |  |  |  |  |  |
| CC(C)NC(=N)c1ccc2nc(C=Cc3nc4ccc(C(=N)NC(C)C)cc4[nH]3)[nH]c2c1 [Compound B, 1,2-bis[5-isopropylamidino-2-benzimidazolyl]ethene] | 10 to 30 µM | 61 µM | 19 µM |  | ≥ 500 µM | 473 µM | no effect on the growth rate | did effect the growth rate | 10 to 30 µM | no effect |  |
| N=C(N)c1ccc2nc(Cc3nc4ccc(C(=N)N)cc4[nH]3)[nH]c2c1 [D, bis[5-amidino-2-benzimidazolyl]methane] | 7 µM |  |  |  |  |  |  |  |  |  | 175 µM |
| N=C(N)c1ccc2[nH]c(Cc3nc4cc(C5=NCCN5)ccc4[nH]3)nc2c1 [E, (5-Amidino-2-benzimidazolyl)-(5′-(2-imidazolinyl)-2′-benzimidazolyl)methane] | 16 µM | > 100 µM | 122 µM |  |  | 65 µM |  |  |  |  |  |
